The results in this text go back to paper PMC4854315, “Discovery of a novel allosteric inhibitor-binding site in ERK5: comparison with the canonical kinase hinge ATP-binding site” (Acta Crystallographica. Section D, Structural Biology, 2016).

Holding throughout (assay): Z'-LYTE kinase panel
Type in all cases: biochemical

One test has as its target T1, ABL2 (Arg) (Homo sapiens, UniProt P42684).
T1 construct: purchased ThermoFisher (SelectScreen, Z'-LYTE)
A digest of the protocol:
(§1)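 Standard Z′-LYTE protocol applied. Compound fixed at 10 µM. Output: % inhibition. Panel size 225 kinases.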

For a further test, the target named is T2, CAMK2B (CaMKII beta) (Homo sapiens, UniProt Q13554).
T2 construct: purchased ThermoFisher (SelectScreen, Z'-LYTE)
The essentials:
as §1

The next test concerns the target T3, CSNK1D (CK1 delta) (Homo sapiens, UniProt P48730).
T3 construct: purchased ThermoFisher (SelectScreen, Z'-LYTE)
A digest of the protocol:
as §1

The target in the next test is T4, EGFR (ErbB1) (Homo sapiens, UniProt P00533).
T4 construct: purchased ThermoFisher (SelectScreen, Z'-LYTE)
The essentials:
as §1

For the next test, the target named is T5, EPHA5 (Homo sapiens, UniProt P54756).
T5 construct: purchased ThermoFisher (SelectScreen, Z'-LYTE)
A digest of the protocol: as §1

The target of the next test is T6, FGFR1 (Homo sapiens, UniProt P11362).
T6 construct: purchased ThermoFisher (SelectScreen, Z'-LYTE)
T6 sequence (P11362 22-822): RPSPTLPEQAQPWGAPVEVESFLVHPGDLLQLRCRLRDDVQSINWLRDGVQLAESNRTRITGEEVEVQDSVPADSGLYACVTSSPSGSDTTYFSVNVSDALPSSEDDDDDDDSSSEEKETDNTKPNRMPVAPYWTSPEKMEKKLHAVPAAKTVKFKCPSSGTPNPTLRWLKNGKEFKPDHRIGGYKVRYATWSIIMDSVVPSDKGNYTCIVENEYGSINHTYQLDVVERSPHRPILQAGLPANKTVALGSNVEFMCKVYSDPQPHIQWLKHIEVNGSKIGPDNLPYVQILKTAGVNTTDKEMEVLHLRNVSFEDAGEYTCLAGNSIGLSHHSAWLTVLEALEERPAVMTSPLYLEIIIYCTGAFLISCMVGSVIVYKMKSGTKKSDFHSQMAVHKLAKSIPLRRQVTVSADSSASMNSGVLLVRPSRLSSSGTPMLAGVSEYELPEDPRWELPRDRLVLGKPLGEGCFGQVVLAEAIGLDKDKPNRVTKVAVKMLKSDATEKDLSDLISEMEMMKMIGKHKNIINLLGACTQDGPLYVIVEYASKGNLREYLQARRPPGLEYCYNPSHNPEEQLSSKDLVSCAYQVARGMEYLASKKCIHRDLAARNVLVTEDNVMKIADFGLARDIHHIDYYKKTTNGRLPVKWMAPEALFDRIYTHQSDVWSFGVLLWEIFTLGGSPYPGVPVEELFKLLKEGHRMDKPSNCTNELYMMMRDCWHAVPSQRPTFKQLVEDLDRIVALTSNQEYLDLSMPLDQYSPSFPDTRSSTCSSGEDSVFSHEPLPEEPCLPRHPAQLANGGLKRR
The essentials:
as §1

Another test deals with T7, FGFR4 (Homo sapiens, UniProt P22455).
T7 construct: purchased ThermoFisher (SelectScreen, Z'-LYTE)
The essentials: as §1

The target of the next test is T8, FRK (PTK5) (Homo sapiens, UniProt P42685).
T8 construct: purchased ThermoFisher (SelectScreen, Z'-LYTE)
T8 sequence (P42685 whole entry): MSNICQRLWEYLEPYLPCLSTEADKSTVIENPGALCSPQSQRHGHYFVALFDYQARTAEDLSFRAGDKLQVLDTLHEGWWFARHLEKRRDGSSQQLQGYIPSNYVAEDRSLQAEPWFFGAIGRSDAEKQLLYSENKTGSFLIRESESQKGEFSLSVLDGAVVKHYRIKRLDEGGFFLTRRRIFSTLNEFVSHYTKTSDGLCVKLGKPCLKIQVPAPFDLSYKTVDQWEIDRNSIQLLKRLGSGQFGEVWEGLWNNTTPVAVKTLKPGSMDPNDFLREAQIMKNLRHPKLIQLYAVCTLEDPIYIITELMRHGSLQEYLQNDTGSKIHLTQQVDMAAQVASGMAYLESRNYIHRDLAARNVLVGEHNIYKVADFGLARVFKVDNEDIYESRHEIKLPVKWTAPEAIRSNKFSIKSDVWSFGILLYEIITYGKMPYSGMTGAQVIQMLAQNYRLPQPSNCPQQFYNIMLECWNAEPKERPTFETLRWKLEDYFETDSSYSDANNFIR
A digest of the protocol:
as §1

The target of the next test is T9, HIPK3 (YAK1) (Homo sapiens, UniProt Q9H422).
T9 construct: purchased ThermoFisher (SelectScreen, Z'-LYTE)
T9 sequence (Q9H422 whole entry): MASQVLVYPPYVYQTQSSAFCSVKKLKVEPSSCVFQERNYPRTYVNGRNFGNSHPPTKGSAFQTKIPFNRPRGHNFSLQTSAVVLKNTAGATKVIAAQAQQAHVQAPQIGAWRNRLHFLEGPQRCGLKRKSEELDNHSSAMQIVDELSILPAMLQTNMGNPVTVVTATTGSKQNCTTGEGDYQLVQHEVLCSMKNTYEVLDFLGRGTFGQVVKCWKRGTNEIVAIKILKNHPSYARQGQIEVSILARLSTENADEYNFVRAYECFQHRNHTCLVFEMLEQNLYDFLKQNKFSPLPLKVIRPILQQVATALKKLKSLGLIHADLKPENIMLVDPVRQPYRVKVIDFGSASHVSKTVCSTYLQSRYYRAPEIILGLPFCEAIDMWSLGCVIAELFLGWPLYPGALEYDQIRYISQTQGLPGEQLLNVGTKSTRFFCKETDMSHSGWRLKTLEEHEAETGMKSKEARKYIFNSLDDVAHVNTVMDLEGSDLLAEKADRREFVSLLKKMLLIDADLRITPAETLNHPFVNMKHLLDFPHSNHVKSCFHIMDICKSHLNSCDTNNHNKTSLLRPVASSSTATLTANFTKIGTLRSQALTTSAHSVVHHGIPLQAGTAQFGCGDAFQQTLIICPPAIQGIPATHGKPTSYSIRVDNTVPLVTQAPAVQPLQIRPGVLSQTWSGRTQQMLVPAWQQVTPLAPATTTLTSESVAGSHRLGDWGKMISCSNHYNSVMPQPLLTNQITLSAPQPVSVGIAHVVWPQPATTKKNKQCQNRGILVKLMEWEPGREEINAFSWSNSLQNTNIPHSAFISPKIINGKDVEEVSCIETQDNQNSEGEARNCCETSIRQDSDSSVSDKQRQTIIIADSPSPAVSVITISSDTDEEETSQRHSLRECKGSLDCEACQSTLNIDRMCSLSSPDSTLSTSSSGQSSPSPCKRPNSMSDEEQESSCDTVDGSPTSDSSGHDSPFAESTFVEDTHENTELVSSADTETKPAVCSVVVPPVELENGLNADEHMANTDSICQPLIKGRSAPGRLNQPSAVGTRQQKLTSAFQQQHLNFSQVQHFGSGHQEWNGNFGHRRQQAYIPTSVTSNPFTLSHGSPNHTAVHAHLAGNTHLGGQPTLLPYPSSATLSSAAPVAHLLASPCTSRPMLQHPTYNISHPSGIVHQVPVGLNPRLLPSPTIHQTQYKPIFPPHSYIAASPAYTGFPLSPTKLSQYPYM
A digest of the protocol: as §1

For the next test, the target named is T10, MAP2K1 (MEK1) (Homo sapiens, UniProt Q02750).
T10 construct: purchased ThermoFisher (SelectScreen, Z'-LYTE)
The settings on record: 10 µM compound; ATP 100. A digest of the protocol: as §1

Another test deals with T11, MAP2K2 (MEK2) (Homo sapiens, UniProt P36507).
T11 construct: purchased ThermoFisher (SelectScreen, Z'-LYTE)
The settings on record: 10 µM compound; ATP 100. A digest of the protocol:
as §1

The target of a further test is T12, MAPK9 (JNK2) (Homo sapiens, UniProt P45984).
T12 construct: purchased ThermoFisher (SelectScreen, Z'-LYTE)
The settings on record: 10 µM compound; ATP 100. A digest of the protocol: as §1

Another test has as its target T13, MET (cMet) (Homo sapiens, UniProt P08581).
T13 construct: purchased ThermoFisher (SelectScreen, Z'-LYTE)
A digest of the protocol:
as §1

A further test has as its target T14, NEK4 (Homo sapiens, UniProt P51957).
T14 construct: purchased ThermoFisher (SelectScreen, Z'-LYTE)
A digest of the protocol:
as §1

For the next test, the target named is T15, NTRK3 (TRKC) (Homo sapiens, UniProt Q16288).
T15 construct: purchased ThermoFisher (SelectScreen, Z'-LYTE)
T15 sequence (Q16288 32-839): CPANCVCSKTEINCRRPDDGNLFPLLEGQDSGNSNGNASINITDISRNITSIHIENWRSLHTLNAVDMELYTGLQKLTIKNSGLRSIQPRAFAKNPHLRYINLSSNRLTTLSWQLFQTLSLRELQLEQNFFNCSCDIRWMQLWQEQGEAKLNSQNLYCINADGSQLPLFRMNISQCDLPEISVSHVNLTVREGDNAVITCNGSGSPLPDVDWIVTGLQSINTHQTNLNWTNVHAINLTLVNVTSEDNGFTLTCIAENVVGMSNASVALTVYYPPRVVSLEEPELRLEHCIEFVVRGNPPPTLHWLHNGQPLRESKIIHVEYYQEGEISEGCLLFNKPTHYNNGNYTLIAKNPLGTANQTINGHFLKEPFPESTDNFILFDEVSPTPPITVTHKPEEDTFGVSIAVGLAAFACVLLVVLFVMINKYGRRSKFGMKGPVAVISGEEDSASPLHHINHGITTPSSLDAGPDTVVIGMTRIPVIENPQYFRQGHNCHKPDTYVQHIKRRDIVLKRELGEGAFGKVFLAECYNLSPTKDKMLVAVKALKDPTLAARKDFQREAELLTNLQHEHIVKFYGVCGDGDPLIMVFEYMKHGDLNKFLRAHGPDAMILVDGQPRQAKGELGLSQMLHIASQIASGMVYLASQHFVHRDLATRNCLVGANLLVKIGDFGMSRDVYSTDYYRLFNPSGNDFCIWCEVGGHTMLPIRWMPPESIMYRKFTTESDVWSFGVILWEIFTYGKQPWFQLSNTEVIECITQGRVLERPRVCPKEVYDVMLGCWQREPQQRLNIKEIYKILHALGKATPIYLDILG
A digest of the protocol: as §1

For a further test, the target named is T16, PAK2 (PAK65) (Homo sapiens, UniProt Q13177).
T16 construct: purchased ThermoFisher (SelectScreen, Z'-LYTE)
The essentials: as §1

In the next test the target is T17, PAK4 (Homo sapiens, UniProt O96013).
T17 construct: purchased ThermoFisher (SelectScreen, Z'-LYTE)
T17 sequence (O96013 whole entry): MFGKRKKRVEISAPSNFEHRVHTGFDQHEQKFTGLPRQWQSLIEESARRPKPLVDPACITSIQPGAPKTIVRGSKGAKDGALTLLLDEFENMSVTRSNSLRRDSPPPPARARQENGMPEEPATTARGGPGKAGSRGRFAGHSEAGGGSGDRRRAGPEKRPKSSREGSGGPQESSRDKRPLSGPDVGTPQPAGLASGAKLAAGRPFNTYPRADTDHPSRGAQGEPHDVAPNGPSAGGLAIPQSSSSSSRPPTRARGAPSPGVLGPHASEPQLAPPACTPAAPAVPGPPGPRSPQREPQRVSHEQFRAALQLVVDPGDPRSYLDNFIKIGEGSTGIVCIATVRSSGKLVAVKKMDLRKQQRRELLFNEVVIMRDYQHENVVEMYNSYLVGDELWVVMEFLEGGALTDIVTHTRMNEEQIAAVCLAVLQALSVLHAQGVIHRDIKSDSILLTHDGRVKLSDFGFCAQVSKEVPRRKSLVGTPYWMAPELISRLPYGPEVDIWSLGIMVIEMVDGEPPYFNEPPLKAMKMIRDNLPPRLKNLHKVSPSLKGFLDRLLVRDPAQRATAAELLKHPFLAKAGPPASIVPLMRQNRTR
The essentials:
as §1

The next test concerns the target T18, PDGFRA (PDGFR alpha) (Homo sapiens, UniProt P16234).
T18 construct: purchased ThermoFisher (SelectScreen, Z'-LYTE)
A digest of the protocol: as §1

A further test deals with T19, SGK (SGK1) (Homo sapiens, UniProt O00141).
T19 construct: purchased ThermoFisher (SelectScreen, Z'-LYTE)
T19 sequence (O00141 1-431): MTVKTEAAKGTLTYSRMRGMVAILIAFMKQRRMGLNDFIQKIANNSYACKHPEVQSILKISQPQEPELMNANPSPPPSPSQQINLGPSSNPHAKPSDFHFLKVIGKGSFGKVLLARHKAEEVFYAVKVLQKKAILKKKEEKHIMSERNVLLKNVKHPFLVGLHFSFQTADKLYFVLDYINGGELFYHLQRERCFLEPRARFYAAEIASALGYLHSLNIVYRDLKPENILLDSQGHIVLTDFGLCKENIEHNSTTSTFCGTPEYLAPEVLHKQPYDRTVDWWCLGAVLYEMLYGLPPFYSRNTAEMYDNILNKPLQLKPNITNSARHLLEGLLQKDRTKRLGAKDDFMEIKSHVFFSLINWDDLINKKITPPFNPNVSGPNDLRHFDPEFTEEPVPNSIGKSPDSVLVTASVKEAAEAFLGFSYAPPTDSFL
The essentials:
as §1

In a further test the target is T20, STK24 (MST3) (Homo sapiens, UniProt Q9Y6E0).
T20 construct: purchased ThermoFisher (SelectScreen, Z'-LYTE)
The essentials:
as §1

Another test addresses T21, STK4 (MST1) (Homo sapiens, UniProt Q13043).
T21 construct: purchased ThermoFisher (SelectScreen, Z'-LYTE)
T21 sequence (Q13043 1-487): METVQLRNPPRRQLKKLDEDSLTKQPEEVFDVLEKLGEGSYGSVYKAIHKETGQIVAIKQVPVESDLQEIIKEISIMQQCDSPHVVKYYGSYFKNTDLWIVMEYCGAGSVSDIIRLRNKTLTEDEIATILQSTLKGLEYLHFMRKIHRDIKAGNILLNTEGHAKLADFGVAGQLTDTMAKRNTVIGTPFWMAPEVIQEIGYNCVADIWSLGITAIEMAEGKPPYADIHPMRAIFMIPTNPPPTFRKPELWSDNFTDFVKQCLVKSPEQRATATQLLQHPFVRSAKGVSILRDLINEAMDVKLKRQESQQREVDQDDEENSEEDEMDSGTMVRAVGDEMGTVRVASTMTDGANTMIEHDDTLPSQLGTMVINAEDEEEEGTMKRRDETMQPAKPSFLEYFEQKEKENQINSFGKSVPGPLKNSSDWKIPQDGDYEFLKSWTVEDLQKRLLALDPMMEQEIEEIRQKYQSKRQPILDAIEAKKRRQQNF
The essentials:
as §1

T14 sequence (P51957 whole entry): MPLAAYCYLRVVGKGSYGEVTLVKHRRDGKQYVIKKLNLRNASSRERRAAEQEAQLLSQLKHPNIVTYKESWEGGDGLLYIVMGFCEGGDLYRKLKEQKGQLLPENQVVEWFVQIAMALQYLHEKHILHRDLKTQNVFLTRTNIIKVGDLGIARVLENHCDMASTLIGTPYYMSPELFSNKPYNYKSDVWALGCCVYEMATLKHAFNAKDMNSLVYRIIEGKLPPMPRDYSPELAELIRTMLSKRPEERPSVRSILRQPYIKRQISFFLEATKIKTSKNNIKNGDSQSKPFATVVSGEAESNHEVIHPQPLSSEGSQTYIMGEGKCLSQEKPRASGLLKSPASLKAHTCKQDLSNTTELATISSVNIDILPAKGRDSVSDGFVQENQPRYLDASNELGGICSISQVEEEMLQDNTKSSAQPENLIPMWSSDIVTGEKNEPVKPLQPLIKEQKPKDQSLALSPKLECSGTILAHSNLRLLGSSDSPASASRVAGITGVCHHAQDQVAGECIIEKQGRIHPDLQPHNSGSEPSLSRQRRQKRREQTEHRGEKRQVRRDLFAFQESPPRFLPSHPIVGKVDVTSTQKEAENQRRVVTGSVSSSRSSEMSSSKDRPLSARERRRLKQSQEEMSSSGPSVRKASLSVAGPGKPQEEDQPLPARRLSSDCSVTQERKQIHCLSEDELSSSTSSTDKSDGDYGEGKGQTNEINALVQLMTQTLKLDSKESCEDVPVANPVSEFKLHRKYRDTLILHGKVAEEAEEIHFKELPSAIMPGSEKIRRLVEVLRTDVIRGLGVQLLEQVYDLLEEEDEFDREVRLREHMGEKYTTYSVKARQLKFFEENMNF

Turning to “XMD8-92 [Compound 2, reference compound]”, the “ABL2 (Arg) % Inhibition” value at ABL2 (Arg) (10 µM compound, ATP Km app) is reported as 21%. Also, the “CAMK2B (CaMKII beta) % Inhibition” value at CAMK2B (CaMKII beta) (10 µM compound, ATP Km app) is 70%. In addition, the “CSNK1D (CK1 delta) % Inhibition” value on CSNK1D (CK1 delta) (10 µM compound, ATP Km app) was 4.56%. Moreover, the “EGFR (ErbB1) % Inhibition” value on EGFR (ErbB1) (10 µM compound, ATP Km app) is -11%. Further, the “EPHA5 % Inhibition” value on EPHA5 (10 µM compound, ATP Km app) was 21%. The “FGFR1 % Inhibition” value at FGFR1 (10 µM compound, ATP Km app) stood at 8%. Besides, the “FGFR4 % Inhibition” value at FGFR4 (10 µM compound, ATP Km app) is given as 19%. Further, at FRK (PTK5) (10 µM compound, ATP Km app), the “FRK (PTK5) % Inhibition” value amounted to 20%. Besides, the “HIPK3 (YAK1) % Inhibition” value at HIPK3 (YAK1) (10 µM compound, ATP Km app) turned out to be 1.8%. Further, the “MAP2K1 (MEK1) % Inhibition” value on MAP2K1 (MEK1) turned out to be 17%. Also, at MAP2K2 (MEK2), the “MAP2K2 (MEK2) % Inhibition” value worked out at 24%. On MAPK9 (JNK2), the “MAPK9 (JNK2) % Inhibition” value came out at 5.42%. For the same compound, on MET (cMet) (10 µM compound, ATP Km app), the “MET (cMet) % Inhibition” value came out at 57%. Besides, the “NEK4 % Inhibition” value on NEK4 (10 µM compound, ATP Km app) amounted to 2.63%. The “NTRK3 (TRKC) % Inhibition” value on NTRK3 (TRKC) (10 µM compound, ATP Km app) is on record as 64%. Also, the “PAK2 (PAK65) % Inhibition” value on PAK2 (PAK65) (10 µM compound, ATP Km app) turned out to be 12%. For the same compound, the “PAK4 % Inhibition” value on PAK4 (10 µM compound, ATP Km app) turned out to be 26%. Further, the “PDGFRA (PDGFR alpha) % Inhibition” value on PDGFRA (PDGFR alpha) (10 µM compound, ATP Km app) worked out at 8%. Also, on SGK (SGK1) (10 µM compound, ATP Km app), the “SGK (SGK1) % Inhibition” value was found to be 66%. The “STK24 (MST3) % Inhibition” value at STK24 (MST3) (10 µM compound, ATP Km app) was determined as 30%. The “STK4 (MST1) % Inhibition” value at STK4 (MST1) (10 µM compound, ATP Km app) is reported as 6%.
Consider `Cc1cc(Nc2nc(N)nn2C(=O)NC(C)C)ccc1Cl` [Compound 5], for which the inhibition at 10 µM against ABL2 (Arg) was 52%; on CAMK2B (CaMKII beta), -2.29%; at CSNK1D (CK1 delta) it was -2%; against EGFR (ErbB1) it was 1%; against EPHA5, 6.49%; at FGFR1, 17%. Further, the inhibition at 10 µM was determined as 10% against FGFR4; 21% at FRK (PTK5); 6.56% on HIPK3 (YAK1); 8.53% on MAP2K1 (MEK1); 21% at MAP2K2 (MEK2); 4.72% at MAPK9 (JNK2). The inhibition at 10 µM against MET (cMet) was 25%; against NEK4 it was 17%; against NTRK3 (TRKC) it was 52%; against PAK2 (PAK65), -1.24%; against PAK4, 41%; against PDGFRA (PDGFR alpha), 22%. The inhibition at 10 µM on SGK (SGK1) came to 9%; against STK24 (MST3) it was 27%; against STK4 (MST1), 65%.
For the compound `Cc1ncc(-c2nc(Nc3ccc(C(=O)NCCN4CCCCC4)cc3)ncc2F)n1C(C)C` [Compound 3], the inhibition at 10 µM on ABL2 (Arg) turned out to be 75%; on CAMK2B (CaMKII beta), 70%; at CSNK1D (CK1 delta), 92%; against EGFR (ErbB1), 13%; against EPHA5 it was 71%; at FGFR1, 73%. Moreover, the inhibition at 10 µM against FGFR4 was 19%; on FRK (PTK5), 68%; against HIPK3 (YAK1), 88%; at MAP2K1 (MEK1), 97%; at MAP2K2 (MEK2) it was 94%; against MAPK9 (JNK2), 103%. For the same compound, the inhibition at 10 µM at MET (cMet) was determined as 85%; against NEK4, 23%; on NTRK3 (TRKC), 79%; against PAK2 (PAK65), 54%; against PAK4 it was 81%; against PDGFRA (PDGFR alpha), 62%. Further, the values for the inhibition at 10 µM against SGK (SGK1), on STK24 (MST3) and against STK4 (MST1) were 91%, 89% and 82%, respectively.

A word on the inhibition: it is the relative decrease from the control value, in per cent.
